Consider one compound from patent US10881641B2, “Methods and use of compounds that bind to RelA of NF-kB” (Cedars-Sinai Medical Center, priority 2015, dated 2021).

“Also recorded” adds a separate entry of the source.

In one test the target is T1, RelA(p65) (Homo sapiens, UniProt Q04206).
T1 construct: endogenous in cells
Briefly: nuclear localization of RelA by immunofluorescent staining. The test is classed as cell-based. To be noted: TNBC cell lines, 20 mM CRL1101 in 1% DMSO, 45 minutes, FIG. 2. On the procedure:
Cells were grown in Dulbecco's modified Eagle medium supplemented with 10% heat-inactivated fetal calf serum and 1% (w/v) penicillin/streptomycin (all purchased from Mediatech Inc, Manassas, Va., USA). Cells were treated with or without 20 mM of CRL1101 in 1% DMSO. Forty five minutes after treatment, cells were fixed with 4% formaldehyde for 10 min and sequentially treated with 0.1% Triton X 100 for 10 min. Cells were blocked in 1% BSA in PBS for 10 min. cells were incubated with anti-Re/A(p65) antibody (1:150, Abeam, Cambridge, UK) in PBS with 1% BSA overnight at 4° C. and a secondary antibody (1:1000 anti-rabbit Alexa 488, Invitrogen, Carlsbad, Calif., USA) for 1 hr in the dark. Analyses were performed using a microscope (Nikon ECLIPSE Ti-U, Nikon, Tokyo, JAPAN).

For the next test, the system named is MDA-MB-231 cells. Kind of test: xenograft breast cancer model, tumor growth. It is filed as in vivo, athymic mice. Conditions: 25 mg/kg/day IP for 4 weeks, compared to vehicle, N=6, FIG. 3. As for the experimental part: Mice were administrated 25 mg/kg/day of CRL1101 or vehicle IP, as indicated by arrows. Results are given as mean tumor volume +− s.e. […] N=6. Therapeutic efficacy of CRL1101 was tested in xenograft breast cancer model. Briefly, triple-negative breast cancer cells, MDA-MB-231 were used to grow tumor in athymic mice. Mice were treated with 25 mg/kg/day, IP for 4 weeks. The control group was treated with vehicle.

The next test relates to breast cancer cells. Briefly: anchorage independent growth assay (colony formation, clonogenic survival). To be noted: 15 uM CRL1101 added after 24 hours, 14 days, soft agarose, FIG. 1B. The test is classed as cell-based. As for the experimental part:
The effects of CRL1101 on clonogenic survival were analyzed. Base layers consisting of growth medium containing 0.53% low-melting point agarose (Invitrogen) were poured onto 6-well plates and allowed to solidify. Cells were seeded at concentration of 10000/well in triplicate in top layers consisting of growth medium containing 0.32% agarose. After 24 hours, 15, uM of CRL1101 was added. Cells were incubated for 14 days to form visible colonies. The colonies were fixed and stained by 0.05% Crystal violet in 50% methanol.

For test [1], the system named is triple-negative breast cancer cell lines. Briefly: cell proliferation by calorimetric assay (MTT). It is filed as cell-based. To be noted: FIG. 1A.

T1 sequence (Q04206 whole entry): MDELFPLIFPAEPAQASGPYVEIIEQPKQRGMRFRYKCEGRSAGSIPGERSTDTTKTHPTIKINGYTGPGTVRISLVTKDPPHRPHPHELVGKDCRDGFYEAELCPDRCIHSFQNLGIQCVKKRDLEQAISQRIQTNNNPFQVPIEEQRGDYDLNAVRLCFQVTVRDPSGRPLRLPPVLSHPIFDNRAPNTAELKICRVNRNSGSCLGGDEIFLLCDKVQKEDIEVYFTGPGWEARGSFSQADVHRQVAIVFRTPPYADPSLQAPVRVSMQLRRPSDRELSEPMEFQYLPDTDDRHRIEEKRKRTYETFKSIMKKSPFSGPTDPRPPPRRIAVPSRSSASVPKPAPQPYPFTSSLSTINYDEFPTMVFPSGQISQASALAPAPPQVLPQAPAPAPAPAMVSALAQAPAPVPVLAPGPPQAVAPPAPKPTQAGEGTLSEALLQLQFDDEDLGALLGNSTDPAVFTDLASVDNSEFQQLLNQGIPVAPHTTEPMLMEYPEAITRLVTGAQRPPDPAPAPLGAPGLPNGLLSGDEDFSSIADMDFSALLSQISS

Regarding `Cl.O=[N+]([O-])c1cc(S(=O)(=O)CCCN2CCOCC2)ccc1F` [CRL1101], the “nuclear localization of RelA” value at RelA(p65) is “significantly inhibited”. In addition, the “tumor growth (mean tumor volume)” value with MDA-MB-231 cells is “significant reduction in tumor growth; also recorded: significant (p<0.001) compared to vehicle”. In addition, in the test on breast cancer cells, the colony formation entry is listed as “significantly inhibited”. Moreover, the IC50 in test [1] (all the three TNBC cell lines, MTT, read-out: IC50, inhibition of TNBC cell line proliferation) is 20 µM. Moreover, the cell proliferation result in test [1] (breast cancer cells) is given as “significantly inhibited”.
